Experimental data as given in ChEMBL document CHEMBL3430912, “GSK Tres Cantos Anti-Kinetoplastid Screening (TCAKS) Data”.

Tests used:
[1] = test system: Trypanosoma brucei brucei; experiment: GSK_TCAKS: pIC50 Trypanosoma brucei viability assay using fluorescence intensity. Assay plates (1536-well) were prepared by dispensing 25nL of compound solution per well using an Echo acoustic dispenser (Labcyte).; format: functional, organism-based; settings: Lister 427, 2 h
Trypanosoma cruzi [2] = experiment: (§1) GSK_TCAKS: pIC50 H2C9 Imaging: H9c2 Host Cardiomyocytes. […] Cells were then washed once with PBS before infection. T. cruzi trypomastigotes, collected at days 5 to 8 after infection from LLC-MK2 parasite infected cultures, were allowed to swim out for 4h at 37C from a centrifuged pellet (2,500 rpm/10 min/room temperature). Trypomastigotes were then collected and counted in a CASY Cell Counter. Trypomastigotes, in supplemented DMEM, were added to H9c2 cultures in a multiplicity of infection of 1 and incubated for 18 h. Cells were washed once with PBS before incubation of the infected H9c2 monolayer with trypsin (Life-Technologies) to detach cells from the flask. Cells were counted in a CASY Cell Counter using a 150 um capillary and their density set at 5 * 10^4 cells per mL in supplemented assay DMEM. Infected H9c2 were dispensed into 384-well poly-lysine coated assay plates at 50uL per well using a Multidrop Combi dispenser. After seeding them, the plates were incubated at 37C, 5% CO2 for 72h. Cultures were then fixed and stained by addition of 50 uL of a solution containing 8% formaldehyde and 4 uM DRAQ5 DNA dye (BioStatus, UK) per well. […] Five images were collected per well for reliable statistical analysis. Automated image analysis was performed with a script developed on Acapella High Content Imaging and Analysis Software (PerkinElmer). Output: Number of H9c2 Host Cardiomyocytes nuclei to determine drug-related cytotoxicity.; format: functional, organism-based, Rattus norvegicus; settings: H9c2, 4 h
Leishmania donovani [3] = experiment: (§2) GSK_TCAKS: pIC50 Leishmania donovani Imaging: THP-1 Host Macrophages. Assay plates (384-well) were prepared by adding 250nL of compound to each well. For single shot assay, the final compound concentration was 5 uM. […] Automated image analysis was performed with a script developed on Acapella High Content Imaging and Analysis Software (PerkinElmer). Output: THP-1 cell count were reported for each well.; format: functional, organism-based, Homo sapiens
Trypanosoma cruzi [4] = experiment: GSK_TCAKS: pIC50 Trypanosoma cruzi viability assay using beta-GAL activity. This assay was run at single shot at 5uM compound concentration per well. The biological reagents consisted of NIH-3T3 host cells and trypomastigotes parasitic cells; both cell types were set to a 3.3 * 10^5 cells/mL dilution in assay DMEM by means of a CASY cell counter device using a 60um capillary. 6 uL of the mixture were dispensed per well (about 1 * 10^3 host-cells and 1 * 10^3 parasites) with a Multidrop Combi dispenser. […] In all wells, the percentage of DMSO never exceeded 0.5%. Plates incubated for four days at 37C, 5% CO2. The substrate used for the assay fluorescence intensity (FLINT) readout was resorufin-beta-D-galactopiranoside (Sigma-Aldrich) at 5uM per well. It was diluted in PBS supplemented with the soft detergent Igepal (Fluka).; format: functional, organism-based, Mus musculus; settings: Tulahuen, NIH3T3
Leishmania donovani [5] = experiment: as §2, with “Infected” for “THP-1 Host”, “Percent of infected macrophage cells” for “THP-1 cell count”; format: functional, organism-based, Homo sapiens; settings: THP-1
Leishmania donovani [6] = experiment: GSK_TCAKS: pIC50 Leishmania donovani viability assay using fluorescence intensity. Assay plates (1536-well) were prepared by adding 30nL per well of compound. For single shot assay, the final compound concentration was 5uM. […] Briefly, eGFP LdBOB axenic amastigotes were harvested, fixed and counted in a CASY cell counter (Roche-Applied Science). A final concentration of 1.5 * 10^5 cells per well were prepared in amastigote media containing 500 U/mL penicillin/streptomycin (Invitrogen) and 6uL was dispensed to each experimental well using a Multidrop Combi dispenser (Thermo Scientific). 6uL of assay media was dispensed to control columns used as reference for 100% compound response. Following incubation for 72 h at 37C, 5% CO2, 2 uL of resazurin was added to each well at a final concentration of 0.5 mM in phosphate buffered saline (PBS) with IGEPAL (Sigma-Aldrich), 0.05% (v/v).; format: functional, organism-based
[7] = target: Sterol 14-alpha demethylase (Trypanosoma cruzi (strain CL Brener), UniProt Q7Z1V1); experiment: GSK_TCAKS: pIC50 CYP51 from Trypanosoma cruzi.; format: functional
Sequence of Sterol 14-alpha demethylase (Q7Z1V1 whole entry): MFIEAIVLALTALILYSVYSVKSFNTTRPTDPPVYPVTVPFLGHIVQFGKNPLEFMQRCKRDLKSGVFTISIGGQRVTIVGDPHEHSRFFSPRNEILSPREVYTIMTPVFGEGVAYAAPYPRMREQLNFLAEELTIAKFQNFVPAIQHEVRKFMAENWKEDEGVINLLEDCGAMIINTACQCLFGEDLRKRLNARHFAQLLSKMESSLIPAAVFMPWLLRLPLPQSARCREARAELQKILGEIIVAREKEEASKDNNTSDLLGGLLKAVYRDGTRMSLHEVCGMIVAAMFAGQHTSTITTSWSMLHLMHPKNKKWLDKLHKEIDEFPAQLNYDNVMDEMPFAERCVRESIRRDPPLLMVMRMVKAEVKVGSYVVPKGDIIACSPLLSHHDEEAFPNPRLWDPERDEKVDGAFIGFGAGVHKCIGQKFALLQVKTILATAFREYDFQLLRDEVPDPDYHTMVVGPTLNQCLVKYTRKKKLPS

[8] = GSK_TCAKS: pIC50 HepG2 human cell line viability assay using luminiscence. […] Seeding density was checked to ensure that new mono-layers were not more than 50% confluent at the time of harvesting. Cell suspension was added to 500 mL of the same medium at a final density of 1.2 * 10^5 cells/mL. This cell suspension was dispensed (25 uL, 3000 cells per well) into 384-well clear-bottom plates using a Multidrop Combi dispenser. Prior to addition of the cell suspension, the screening compounds (250 nL) were pre-dispensed into the plates with an Echo liquid handler. Plates were incubated for 48 h at 37C, 5% CO2. After incubation, plates equilibrated at room temperature for 30 min before proceeding to develop the luminescent signal. The signal developer, CellTiter-Glo Reagent, was allowed to equilibrate at room temperature for 30 min and added to the plates (25uL per well) using a Multidrop Combi dispenser. Plates were left for 10 min at room temperature for stabilization and then read using a ViewLux.; format: toxicity, cell-based
Leishmania donovani [9] = experiment: as §2, with “Amastigotes/Macrophages.” for “THP-1 Host Macrophages.”, “Average number of amastigotes per macrophage” for “THP-1”, “cell” for “cell count”; format: functional, organism-based, Homo sapiens; settings: THP-1
Trypanosoma cruzi [10] = experiment: as §1, with “Trypanosoma cruzi” for “H2C9”, “Infected Cells.” for “H9c2 Host Cardiomyocytes.”, “percentage” for “Number”, “infected cells per well as a second infection marker.” for “H9c2 Host Cardiomyocytes nuclei to determine drug-related cytotoxicity.”; format: functional, organism-based, Rattus norvegicus; settings: H9c2, 4 h
[11] = test system: Trypanosoma brucei brucei; experiment: GSK_TCAKS: pIC50 Trypanosoma brucei viability assay using luminiscence. Assay plates (1536-well) were prepared. T. brucei cultures were harvested and counted in a CASY cell counter. A parasite suspension was prepared at a final concentration of 5 * 10^4 cells/mL in complete HMI9 medium and 6uL was dispensed to all wells containing compounds using a Multidrop Combi dispenser. 6uL of HMI9 media with 0.4% DMSO were dispensed to control columns. Plates were incubated for 24 h at 37C, 5% CO2 then tempered for 10 min at room temperature. ATP content was quantified by adding 4 uL of CellTiter-Glo Reagent (Promega) according to the manufacturer's instructions. Luminescence was measured using a ViewLux.; format: functional, organism-based; settings: Lister 427, CASY
Trypanosoma cruzi [12] = experiment: as §1, with “Trypanosoma cruzi” for “H2C9”, “Amastigotes/Cell.” for “H9c2 Host Cardiomyocytes.”, “number” for “Number”, “amastigotes per cell as infection level measurement.” for “H9c2 Host Cardiomyocytes nuclei to determine drug-related cytotoxicity.”; format: functional, organism-based, Rattus norvegicus; settings: H9c2, 4 h

SMILES: Cc1nc(C(=O)Nc2ccc3c(c2)OCO3)nn1-c1ccc(Cl)cc1
- IC50 [1]: > 39.8 µM
- IC50 (Trypanosoma cruzi [2]): > 50.1 µM
- IC50 (Leishmania donovani [3]): 12.6 µM
- IC50 (Trypanosoma cruzi [4]): 6.31 µM
- IC50 (Leishmania donovani [5]): 2 µM
- IC50 (Leishmania donovani [6]): 2.51 µM
- IC50 [7]: 31.6 µM
- IC50 at 48 h [8]: > 100 µM
- IC50 (Leishmania donovani [9]): 1.58 µM
- IC50 (Trypanosoma cruzi [10]): 1.58 µM
- IC50 [11]: > 39.8 µM
- IC50 (Trypanosoma cruzi [12]): 1 µM

SMILES: Cc1noc(C)c1COc1cccc(C(=O)N=c2[nH]cccc2C)c1
- IC50 [1]: 0.398 µM
- IC50 (Trypanosoma cruzi [2]): 2.51 µM
- IC50 (Leishmania donovani [3]): 6.31 µM
- IC50 (Trypanosoma cruzi [4]): > 50.1 µM
- IC50 (Leishmania donovani [5]): 20 µM
- IC50 (Leishmania donovani [6]): > 50.1 µM
- IC50 [7]: 50.1 µM
- IC50 at 48 h [8]: > 100 µM
- IC50 (Leishmania donovani [9]): 10 µM
- IC50 (Trypanosoma cruzi [10]): 50.1 µM
- IC50 [11]: 0.794 µM
- IC50 (Trypanosoma cruzi [12]): 39.8 µM

SMILES: Cc1nc(C(=O)Nc2ccc3c(c2)OCO3)nn1-c1ccc(F)cc1
- IC50 [1]: > 39.8 µM
- IC50 (Trypanosoma cruzi [2]): > 50.1 µM
- IC50 (Leishmania donovani [3]): > 50.1 µM
- IC50 (Trypanosoma cruzi [4]): 3.16 µM
- IC50 (Leishmania donovani [5]): 7.94 µM
- IC50 (Leishmania donovani [6]): 2 µM
- IC50 [7]: 39.8 µM
- IC50 at 48 h [8]: > 100 µM
- IC50 (Leishmania donovani [9]): 2.51 µM
- IC50 (Trypanosoma cruzi [10]): 1.26 µM
- IC50 [11]: > 39.8 µM
- IC50 (Trypanosoma cruzi [12]): 1 µM

SMILES: COc1cc(OC)cc(C(NS(=O)(=O)c2ccc(Cl)c(C(F)(F)F)c2)c2nccn2C)c1 (stereo unspecified)
- IC50 [1]: 7.94 µM
- IC50 (Trypanosoma cruzi [2]): 10 µM
- IC50 (Leishmania donovani [3]): > 50.1 µM
- IC50 (Trypanosoma cruzi [4]): 3.98 µM
- IC50 (Leishmania donovani [5]): 6.31 µM
- IC50 (Leishmania donovani [6]): 10 µM
- IC50 [7]: 31.6 µM
- IC50 at 48 h [8]: > 100 µM
- IC50 (Leishmania donovani [9]): 5.01 µM
- IC50 (Trypanosoma cruzi [10]): 6.31 µM
- IC50 [11]: 7.94 µM
- IC50 (Trypanosoma cruzi [12]): 3.16 µM

SMILES: Cc1ccc(C)c(CN2C(=O)NC3(CCc4ccccc43)C2=O)c1 (stereo unspecified)
- IC50 [1]: 0.501 µM
- IC50 (Trypanosoma cruzi [2]): > 50.1 µM
- IC50 (Leishmania donovani [3]): > 50.1 µM
- IC50 (Trypanosoma cruzi [4]): 25.1 µM
- IC50 (Leishmania donovani [5]): > 50.1 µM
- IC50 (Leishmania donovani [6]): > 50.1 µM
- IC50 [7]: 39.8 µM
- IC50 at 48 h [8]: > 100 µM
- IC50 (Leishmania donovani [9]): 15.8 µM
- IC50 (Trypanosoma cruzi [10]): 20 µM
- IC50 [11]: 1 µM
- IC50 (Trypanosoma cruzi [12]): 7.94 µM

SMILES: CCN(CC)c1ccc(S(=O)(=O)N(CC)CC)c2nonc12
- IC50 [1]: 25.1 µM
- IC50 (Trypanosoma cruzi [2]): > 50.1 µM
- IC50 (Leishmania donovani [3]): 15.8 µM
- IC50 (Trypanosoma cruzi [4]): 25.1 µM
- IC50 (Leishmania donovani [5]): 0.398 µM
- IC50 (Leishmania donovani [6]): 6.31 µM
- IC50 [7]: 25.1 µM
- IC50 at 48 h [8]: > 100 µM
- IC50 (Leishmania donovani [9]): 0.126 µM
- IC50 (Trypanosoma cruzi [10]): 50.1 µM
- IC50 [11]: 25.1 µM
- IC50 (Trypanosoma cruzi [12]): 20 µM

SMILES: COc1ccc(OC)c2c(=O)c(Cc3ccccc3)c(C)[nH]c12
- IC50 [1]: > 39.8 µM
- IC50 (Trypanosoma cruzi [2]): > 50.1 µM
- IC50 (Leishmania donovani [3]): > 50.1 µM
- IC50 (Trypanosoma cruzi [4]): 0.224 µM
- IC50 (Leishmania donovani [5]): 3.98 µM
- IC50 (Leishmania donovani [6]): 0.398 µM
- IC50 [7]: > 100 µM
- IC50 at 48 h [8]: > 100 µM
- IC50 (Leishmania donovani [9]): 2.51 µM
- IC50 (Trypanosoma cruzi [10]): 0.501 µM
- IC50 [11]: > 39.8 µM
- IC50 (Trypanosoma cruzi [12]): 0.126 µM

SMILES: CCCn1c(NC(=O)CCn2cc(Br)cn2)nc2ccccc21
- IC50 [1]: 7.94 µM
- IC50 (Trypanosoma cruzi [2]): 25.1 µM
- IC50 (Leishmania donovani [3]): > 50.1 µM
- IC50 (Trypanosoma cruzi [4]): 5.01 µM
- IC50 (Leishmania donovani [5]): 10 µM
- IC50 (Leishmania donovani [6]): 10 µM
- IC50 [7]: 10 µM
- IC50 at 48 h [8]: > 100 µM
- IC50 (Leishmania donovani [9]): 5.01 µM
- IC50 (Trypanosoma cruzi [10]): 6.31 µM
- IC50 [11]: 7.94 µM
- IC50 (Trypanosoma cruzi [12]): 2.51 µM
